Results as given in patent US20150366966A1, “Stable Aqueous Solution” (SENJU PHARMACEUTICAL CO., LTD., priority 2013, published 2015).

Legend:
PPARδ = target: T1, PPARδ (Homo sapiens, UniProt Q03181); conditions: reported in WO 03/033493 and WO 2008/143254; cited from earlier work
T1 sequence (Q03181 1-441): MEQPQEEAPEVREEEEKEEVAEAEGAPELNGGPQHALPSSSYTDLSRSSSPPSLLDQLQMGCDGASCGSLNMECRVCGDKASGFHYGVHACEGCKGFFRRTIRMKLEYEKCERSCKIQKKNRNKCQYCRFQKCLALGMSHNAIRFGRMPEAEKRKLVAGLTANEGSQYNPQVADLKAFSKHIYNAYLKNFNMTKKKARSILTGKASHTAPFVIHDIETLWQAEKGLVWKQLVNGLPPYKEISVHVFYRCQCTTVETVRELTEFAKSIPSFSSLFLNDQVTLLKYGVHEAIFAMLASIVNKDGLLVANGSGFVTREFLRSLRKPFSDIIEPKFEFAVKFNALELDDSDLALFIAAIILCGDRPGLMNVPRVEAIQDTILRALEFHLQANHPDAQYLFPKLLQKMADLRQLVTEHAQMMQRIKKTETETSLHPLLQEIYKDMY

[1] = Solubility of compound A in water; format: physicochemical
Method: This has already been shown by the fact that the heat stability of compound A in an aqueous solution decreases extremely when polysorbate 80 conventionally widely used as a solubilizer of poorly soluble drugs is added (see below-mentioned Experimental Example 2, Comparative Example 1).

[2] = Light stability of compound A in aqueous solution (residual ratio by HPLC after white light irradiation); format: physicochemical
Method: An aqueous solution of compound A was prepared according to the following formulation. In 0.1% phosphate buffer was added a predetermined amount of tyloxapol, octoxynol, polysorbate 80, HCO-60 or MYS-40, and the mixture was adjusted to […] with sodium hydroxide. Compound A in the predetermined amount in the following formulation was dissolved in said solution, and the mixture was sterilized by filtration with a 0.22 μm membrane filter, and filled in a 5 mL colorless glass ampoule. Using a photostability testing device (model: LT-120A-WCD, manufactured by Nagano Science Co., Ltd.), the ampoule was exposed to white light (total illumination 12000 lux·h and 24000 lux·h), and the content of compound A in the glass ampoule was measured.
Compound A after storage was quantified by high performance liquid chromatography using the absolute calibration curve method (the Japanese Pharmacopoeia). […]
An aqueous solution of compound A was prepared according to the following formulation. […] The glass ampoule was placed, under light irradiation conditions and storage conditions at 80° C. for 1 week, and the content of each compound A was measured. Compound A was quantified in the same manner as in Experimental Example 1 and Experimental Example 2.

- solubility in water (in words) [1]: practically insoluble in water
Structure (SMILES): Cc1cc2c(CCc3sc(-c4ccc(C(F)(F)F)cc4)nc3C(C)C)noc2cc1OCC(=O)O [Compound A, (3-{2-[4-isopropyl-2-(4-trifluoromethyl)phenyl-5-thiazolyl]ethyl}-5-methyl-1,2-benzisoxazol-6-yl)oxyacetic acid]
- PPARδ agonist action (in words) (PPARδ): PPARδ agonist
- stability to light in aqueous solution (in words) [2]: extremely unstable to light in an aqueous solution
